From patent publication US20080165354A1, “Method and Apparatus For Dissolving Solid Matter in Liquid” (priority 2005, published 2008)
“Also recorded” adds a separate entry of the source.

Experiments:
[1] = Flow-through dissolution test, concentration of the dissolution medium by in-line UV-Vis spectrophotometer; type: physicochemical; settings: same setup as Example 1, flow rate 20 ml/min
Description: (§1) Dissolution testing was carried out employing simultaneous liquid/solid phase analysis. A modified flow-through dissolution method was used, in which • the concentration of the medium was measured with a UV-Vis spectrophotometer and • a simultaneous solid state analysis on the dissolving tablet in a flow-through chamber was performed using an in situ Raman spectroscopic analysis. The dissolution testing setup consisted of the flow-through cell, liquid reservoir (V=500 ml) and a peristaltic pump that circulates the medium (pump speed=70 rpm 9,3 ml/min). The dissolution medium used in the experiments was distilled water (room temperature).

[2] = In situ Raman spectroscopic solid state analysis of the dissolving tablet in a flow-through chamber; type: physicochemical; settings: same setup as Example 1, flow rate 20 ml/min
Description: as §1, with “temperature). The Raman spectra were collected using a Raman spectrometer (Control Development, South Bend, Ind., USA) with a diode laser (Starbright 785 S, Torsana Laser Technologies, Skodsborg, Denmark) at 785 nm. A fiber optic sampling probe (InPhotonics, Norwood, MA, USA) was used. The spectral range measured was 2200-100 cm^−1 at a resolution of 5 cm^−1.” for “temperature).”

With O=C1CN(/N=C/c2ccc([N+](=O)[O-])o2)C(=O)N1 [NF anhydrate, Nitrofurantoin] the “changes of the dissolution rate” value [1] was “more complicated when compared to changes in the dissolution rate of TP” and the “solid phase transformation during dissolution” value [2] was “solid phase transformation of NF anhydrate to NF monohydrate (II); also recorded: an order of magnitude slower than that of TP anhydrate”.
